# Experimental data as given in patent publication US11958868B2, “Methods of using metal complexes to promote wound healing” (University of Macau, priority 2022, dated 2024).
# Experiments:
# [1] = tested on: oxygen depletion, PHD inhibition, proteasomal inhibition; experiment: Alternative mechanisms of HIF activation (oxygen depletion, PHD inhibition, proteasomal inhibition)
# [2] = tested on: full-thickness skin wounds in leptin-receptor deficient (db/db) diabetic mice; conditions: 0.25 mg/mL topical every other day
# Description: (§1) The db/db and age-matched wide-type (WT) mice were locally administered with vehicle (0.8% w/v Carbopol 974P NF in distilled water, pH 7.0) and 0.25 mg/mL complex 1a (mixed in 0.8% w/v Carbopol 974P NF in distilled water) every other day for 8 days, respectively (FIG. 4a). […] STZ mice were obtained by a single injection of high-dose streptozotocin (150 mg/kg) (Supplementary FIG. 10a). HFD/STZ mice were generated by 8 weeks high-fat diet feeding, followed by low-dose streptozotocin injection for 7 days (40 mg/kg/day) (Supplementary FIG. 11a). 3 days after streptozotocin injection, STZ or HFD/STZ mice with fasting blood glucose levels between 15 and 28 mmol/L were considered as diabetic mice and used in wound healing experiments. STZ and HFD/STZ mice were intraperitoneally injected with either vehicle (PEG 400: distilled water=6:4, v/v) or 1.25 mg/kg complex 1a every other day for 8 days, respectively.
# (§2) In the wound healing experiment, two full-thickness skin lesions were excised in interscapular area of each mouse, and the wound area was monitored every other day.
# (§3) Male db/db mice were purchased from the Model Animal Research Center of Nanjing University (Nanjing, China). Male C57BL/6J mice were purchased from the animal facility of Faculty of Health Sciences, University of Macau.
# [3] = tested on: full-thickness skin wounds in high-fat diet-fed, streptozotocin-treated diabetic mice (HFD/STZ); conditions: 1.25 mg/kg i.p. every other day
# Description: as §1, §2, §3
# [4] = tested on: EPO, GLUT1 and VEGF in HIF-1α knockdown HEK293 cells; experiment: HIF-1α knockdown assay in HEK293 cells; type: cell-based, Human; conditions: HIF-1α siRNA
# Description: FIG. 3 depicts the effect of complex 1a on HIF-1α target gene products in cellulo. (A) Effect of complex 1a on specific proteins (GLUT1, VEGF, and EPO) mediated by HIF-1α in HEK293 cells. HEK293 cells were treated with 1a for 2 h. Cell lysis were collected and analyzed by the Western blotting. (B) Complex 1a has no effect on HIF-1α accumulation in a VHL null cancer cell line. A498 (VHL-null), or HEK293 cells were treated with 1% DMSO, 1a (3 μM), VH298 (100 μM), and FG-4592 (100 μM) for 2 h before lysis. (C) Effect of complex 1a on EPO, GLUT1, and VEGF levels in HEK293 cells with or without HIF-1α knockdown. Left: The expression levels of EPO, GLUT1, and VEGF in HEK293 cells with or without knockdown HIF-1α in the presence or absence of 1a. Right: Densitometry analysis of EPO, GLUT1, and VEGF levels on the Western blot. HIF-1α siRNA [sense, 5′-[…]-3′ (SEQ ID NO:1), antisense, 5′-[…]-3′ (SEQ ID NO:2)]. Negative control (NC) siRNA [sense, 5′-[…]-3′ (SEQ ID NO:3), antisense, 5′-[…]-3′ (SEQ ID NO:4)]. Data are expressed as means±SD (n=3 independent experiments), P values were calculated using a two-sided t-test. #P<0.05, P<0.01 HIF-1α siRNA vs. NC siRNA, *P<0.05, **P<0.01 1a vs. vehicle/DMSO group, respectively.
# A knockdown assay was performed to further verify the on-target effect of complex 1a. EPO, GLUT1, and VEGF are target genes regulated by HIF-1α. […]
# [5] = tested on: full-thickness skin wounds in streptozotocin-induced diabetic mice (STZ); experiment: Skin wound model in STZ diabetic mice, intraperitoneal; type: in vivo; conditions: 1.25 mg/kg i.p. every other day
# Source text: The mice were maintained for 3 days. […] All experiments complied with all relevant ethical regulations.
# Mice were anesthetized by inhalation of 3% isoflurane.
# [6] = biological target: T1, human recombinant VHL:ElonginB:ElonginC (VBC) complex (Homo sapiens, UniProt P40337); experiment: Fluorescence-based protein thermal shift assay (FTS) of VBC; type: binding; conditions: 100 μM
# T1 construct: made in house
# T1 sequence (P40337 whole entry): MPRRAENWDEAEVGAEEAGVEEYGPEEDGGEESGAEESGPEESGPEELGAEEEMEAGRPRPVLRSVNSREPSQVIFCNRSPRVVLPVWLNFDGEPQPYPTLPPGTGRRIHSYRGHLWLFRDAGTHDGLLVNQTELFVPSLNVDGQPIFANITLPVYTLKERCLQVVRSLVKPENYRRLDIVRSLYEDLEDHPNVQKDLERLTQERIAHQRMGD
# T1 sequence (Q15370 whole entry partner): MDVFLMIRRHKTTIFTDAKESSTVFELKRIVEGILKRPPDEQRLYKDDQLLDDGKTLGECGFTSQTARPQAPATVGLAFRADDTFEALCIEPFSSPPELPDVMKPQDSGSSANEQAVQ
# T1 sequence (Q15369 whole entry partner): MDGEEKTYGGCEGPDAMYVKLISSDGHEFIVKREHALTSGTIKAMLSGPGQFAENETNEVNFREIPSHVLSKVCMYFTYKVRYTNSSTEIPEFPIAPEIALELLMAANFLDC
# Description: HEK293 cells were treated with vehicle DMSO (1% for 2 h), 1a (0.3, 1, 3, 6 and 9 μM for 2 h), VH298 (100 μM for 2 h), MG132 (20 μM for 3 h), or FG-4592 (100 μM for 2 h) before lysis. Cell lysates were collected and incubated with VHL antibody overnight at 4° C. The proteins were immunoprecipitated using agarose beads. The levels of hydroxy-HIF-1α co-precipitated with VHL were detected using a hydroxy-HIF-1α antibody, and then visualized using ECL Western Blotting Detection Reagent (GE Healthcare). (B) Cellular thermal shift assays to monitor cellular target engagement of VHL and HIF-1α. HEK293 cell lysates were treated with 1a (3 μM) at room temperature for 30 min and then heated at different temperature ranging from 48° C. to 68° C. for 5 min. The protein samples were collected and detected by Western blotting using either VHL or PHD2 antibodies. (C) Fluorescence-based protein thermal shift assay of VBC in the presence or absence of VH298 (100 μM) and complex 1a (100 μM). […] Data are expressed as means±SD (n=3 independent experiments for figures a and b, samples for figures c and e), P values were calculated using a two-sided t-test. *P<0.05, **P<0.01 vs. DMSO group.
# After incubating HEK293 cell lysates with complex 1a followed by heating to set temperatures, VHL and PHD2 levels in the soluble fraction were quantitated by Western blotting.
# [7] = ICP-MS analysis of iridium in skin samples; type: in vivo; conditions: dosed STZ and HFD/STZ mice
# HIF-2a = experiment: Effect on HIF-2a level and activity; type: cell-based
compound,measurement,setting,value
COc1cc[n+]2c3c1ccc1c(OC)cc[n+](c13)[Ir-3]213([c]2ccccc2-c2cccc[n+]21)[c]1ccccc1-c1cccc[n+]13.F[P-](F)(F)(F)(F)F [1a],"Activation of HIF signaling via oxygen depletion, PHD inhibition and/or proteasomal inhibition",[1],"unlikely to activate HIF signaling via oxygen depletion, PHD inhibition, and/or proteasomal inhibition"
same,"Rate of wound closure, db/db mice, 4 days",[2]; 4 days post-injury,about 28%
same,"Rate of wound closure, db/db mice, 8 days",[2]; 8 days post-injury,~40%
same,"Rate of wound closure, HFD/STZ mice, 4 days",[3]; 4 days post-injury,62%
same,"Rate of wound closure, HFD/STZ mice, 8 days",[3]; 8 days post-injury,82%
same,"Accumulation of EPO, GLUT1 and VEGF in HIF-1α knockdown cells compared with normal cells",[4],"less able to increase the accumulation of EPO, GLUT1, and VEGF in HIF-1α knockdown cells"
same,"Rate of wound closure, STZ mice, 4 days",[5]; 4 days post-injury,50%
same,"Rate of wound closure, STZ mice, 8 days",[5]; 8 days post-injury,76%
same,Shift of the melting curve of purified VBC (FTS),[6],ca. 3.0 °C
same,Iridium in skin samples (ICP-MS),[7],confirmed the presence of iridium in skin samples
same,Level and activity of HIF-2a,HIF-2a,no effect on the level and activity of HIF-2a
